Measurements published in patent US8969554B2, “6-acyl-1,2,4-triazine-3,5-dione derivative and herbicides” (Kumiai Chemical Industry Co., Ltd., priority 2010, dated 2015).

Key:
Format in all cases: in vivo
Echinochloa oryzicola = experiment: Herbicidal activity by paddy field soil treatment (Test Example 1); parameters: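 index 0 to 10 in 10% steps of herbicidal effect with 10 meaning complete death and 0 below 10%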; settings: 1000 g of effective component per hectare, evaluated on day 21 after the treatment, criteria of Table 72
In short: (§1)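 Pre-emergence paddy soil test: sown pots, 3 cm flood, water-surface application of diluted wettable powder 1 day after sowing, 1000 g a.i./ha; greenhouse; effect scored on graded scale at day 21.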

Monochoria vaginalis = experiment: as above; parameters: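 index 0 to 10 in 10% steps of herbicidal effect with 10 meaning complete death and 0 below 10%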; settings: 1000 g of effective component per hectare, evaluated on day 21 after the treatment, criteria of Table 72
In short: as §1

Scirpus juncoides Rocxb. = experiment: as above; parameters: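 index 0 to 10 in 10% steps of herbicidal effect with 10 meaning complete death and 0 below 10%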; settings: applied on water surface, 1000 g of effective component per hectare, day 21 after the treatment
In short: as §1

A. retroflexus [1] = experiment: Herbicidal activity by field soil treatment (Test example 2); parameters: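 index 0 to 10 in 10% steps of herbicidal effect with 10 meaning complete death and 0 below 10%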; settings: 1000 g effective component per hectare, day 21 after the treatment
In short: (§2)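 Soil-surface spray after sowing; wettable powder in water, 1000 g a.i./ha at 1000 L/ha. 80 cm^2 pots, field soil, greenhouse. Visual herbicidal score on day 21.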

Echinochloa crus-galli [2] = experiment: as above; parameters: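 index 0 to 10 in 10% steps of herbicidal effect with 10 meaning complete death and 0 below 10%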; settings: 1000 g effective component per hectare, day 21 after the treatment
In short: as §2

Indian millet [3] = experiment: as above; parameters: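 index 0 to 10 in 10% steps of herbicidal effect with 10 meaning complete death and 0 below 10%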; settings: 1000 g effective component per hectare, day 21 after the treatment
In short: as §2

foxtail = experiment: as above; settings: 1000 g effective component per hectare, day 21 after the treatment;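 further: index 0 to 10 in 10% steps of herbicidal effect with 10 meaning complete death and 0 below 10%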
In short: as §2

A. retroflexus [4] = experiment: Herbicidal activity by field foliage treatment (Test example 3); parameters: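 index 0 to 10 in 10% steps of herbicidal effect with 10 meaning complete death and 0 below 10%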; settings: 1000 g effective component per hectare, day 14 after the treatment
In short: (§3)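 Post-emergence foliar spray, 2-week-old greenhouse seedlings in field soil; wettable powder in water, 1000 g a.i./ha in 1000 L/ha. Greenhouse hold, visual herbicidal rating at 14 d.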

Indian millet [5] = experiment: as above; parameters: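 index 0 to 10 in 10% steps of herbicidal effect with 10 meaning complete death and 0 below 10%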; settings: 1000 g effective component per hectare, day 14 after the treatment
In short: as §3

Echinochloa crus-galli [6] = experiment: as above; parameters: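 index 0 to 10 in 10% steps of herbicidal effect with 10 meaning complete death and 0 below 10%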; settings: 1000 g effective component per hectare, day 14 after the treatment
In short: (§4)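 Herbicidal effect was rated on day 14 following a foliar spray of 1000 g active ingredient per hectare, applied as water-diluted wettable powder at 1000 L/ha. Plants had been raised for 2 weeks in field soil under greenhouse conditions before spraying.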

Setaria viridis = experiment: as above; settings: 1000 g effective component per hectare, day 14 after the treatment;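 further: index 0 to 10 in 10% steps of herbicidal effect with 10 meaning complete death and 0 below 10%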
In short: as §4

| SMILES | Herbicidal effects index number, Echinochloa oryzicola (Echinochloa oryzicola) | Herbicidal effects index number, Monochoria vaginalis (Monochoria vaginalis) | herbicidal effect index, S. juncoides Rocxb. (Scirpus juncoides Rocxb.) | herbicidal effect index, Amaranthus retroflexus (A. retroflexus [1]) | herbicidal effect index, Echinochloa crus-galli (Echinochloa crus-galli [2]) | herbicidal effect index, Abutilon theophrasti (Indian millet [3]) | herbicidal effect index, Setaria viridis (foxtail) | herbicidal effect index, Amaranthus retroflexus (A. retroflexus [4]) | herbicidal effect index, Abutilon theophrasti (Indian millet [5]) | herbicidal effect index, Echinochloa crus-galli (Echinochloa crus-galli [6]) | herbicidal effect index, Setaria viridis (Setaria viridis) |
| --- | --- | --- | --- | --- | --- | --- | --- | --- | --- | --- | --- |
| Cn1nc(C(=O)C2=C(O)CCCC2=O)c(=O)n(-c2ccc([N+](=O)[O-])cc2)c1=O [I-68] | 10 | 10 | 10 | 10 | 10 | 10 | 10 | 10 | 10 | 10 | 8 |
| Cn1nc(C(=O)C2=C(O)CCCC2=O)c(=O)n(-c2ccc(OC(F)(F)F)cc2)c1=O [I-71] | 10 | 10 | 10 | 10 | 10 | 10 | 6 | 10 | 9 | 10 | 9 |
| Cn1nc(C(=O)C2=C(O)CCCC2=O)c(=O)n(-c2ccccc2C#N)c1=O [I-72] | 10 | 10 | 10 | 10 | 9 | 10 | 10 | 10 | 10 | 10 | 10 |
| Cn1nc(C(=O)C2=C(O)CCCC2=O)c(=O)n(-c2cccc(C#N)c2)c1=O [I-73] | 10 | 10 | 10 | 10 | 9 | 10 | 8 | 10 | 10 | 10 | 10 |
| Cn1nc(C(=O)C2=C(O)CCCC2=O)c(=O)n(-c2ccc(C#N)cc2)c1=O [I-74] | 10 | 10 | 10 | 10 | 10 | 10 | 7 | 10 | 9 | 9 | 9 |
| Cn1nc(C(=O)C2=C(O)CCCC2=O)c(=O)n(-c2ccc(F)c(F)c2)c1=O [I-75] | 10 | 10 | 10 | 10 | 9 | 10 | 7 | 10 | 10 | 10 | 10 |
| Cn1nc(C(=O)C2=C(O)CCCC2=O)c(=O)n(-c2cc(F)cc(F)c2)c1=O [I-76] | 10 | 10 | 10 | 10 | 10 | 10 | 9 | 10 | 10 | 10 | 9 |
| Cn1nc(C(=O)C2=C(O)CCCC2=O)c(=O)n(-c2cccc(F)c2F)c1=O [I-77] | 10 | 10 | 10 | 10 | 9 | 10 | 9 | 10 | 10 | 10 | 10 |
| Cn1nc(C(=O)C2=C(O)CCCC2=O)c(=O)n(-c2cc(F)ccc2F)c1=O [I-79] | 10 | 10 | 10 | 10 | 9 | 10 | 10 | 10 | 10 | 10 | 10 |
| Cn1nc(C(=O)C2=C(O)CCCC2=O)c(=O)n(-c2c(F)cccc2F)c1=O [I-80] | 10 | 10 | 10 | 10 | 9 | 9 | 9 | 10 | 9 | 10 | 7 |
| Cn1nc(C(=O)C2=C(O)CCCC2=O)c(=O)n(-c2ccc(Cl)c(Cl)c2)c1=O [I-81] | 10 | 10 | 10 | 10 | 9 | 10 | 7 | 10 | 10 | 10 | 10 |
| Cn1nc(C(=O)C2=C(O)CCCC2=O)c(=O)n(-c2cc(Cl)cc(Cl)c2)c1=O [I-82] | 8 | 10 | 10 | 10 | 9 | 9 | 9 | 10 | 10 | 10 | 10 |
| Cn1nc(C(=O)C2=C(O)CCCC2=O)c(=O)n(-c2cccc(Cl)c2Cl)c1=O [I-83] | 10 | 10 | 10 | 10 | 9 | 10 | 9 | 10 | 10 | 10 | 10 |
| Cn1nc(C(=O)C2=C(O)CCCC2=O)c(=O)n(-c2ccc(Cl)cc2Cl)c1=O [I-84] | 10 | 10 | 10 | 10 | 9 | 10 | 9 | 10 | 10 | 9 | 10 |
| Cn1nc(C(=O)C2=C(O)CCCC2=O)c(=O)n(-c2cc(Cl)ccc2Cl)c1=O [I-85] | 10 | 10 | 10 | 10 | 9 | 10 | 9 | 10 | 10 | 9 | 10 |
